Reference: patent US8440168B2, “Image-guided therapy of myocardial disease: composition, manufacturing and applications” (The Board of Regents of the University of Texas System, priority 2008, dated 2013)

Tests used:
normal rat = assay: SPECT/CT imaging of a normal rat; format: in vivo; settings: 300 μCi, SPECT/CT at 45 min
Procedure: (§1) To ascertain ^99mTc-EDA-ESM is a heart-specific agent, not tumor seeking agent, the inventors created a tumor model. Female Fischer 344 rats (125-175 g, n=5) were inoculated with breast cancer cells (13762NF, 10^6 cells/rat, s.c. in the hind leg). After 15-20 days and a tumor volume of […], the breast tumor-bearing rats were administered with 300 μCi of ^99mTc-EDA-ESM. Scintigraphic images, using a gamma camera equipped with low-energy, parallel-hole collimator, were obtained from 15 to 45 min. In separate studies, normal Female Fischer 344 rats ([…], n=5) were administered with 300 μCi of ^99mTc-EDA-ESM and scintigraphic images were obtained at 30-180 min. One rat was administered with 300 μCi of ^99mTc-EDA-ESM and SPECT/CT was performed at 45 min. […] In normal rats administered with ^99mTc-EDA-ESM (n=5), heart to muscle ([…]) count density uptake ratios were increased (2.7 to 5.1) at 30-180 min (FIG. 11).

[1] = tested on: breast tumor-bearing rats; assay: Planar scintigraphic imaging in breast tumor-bearing rats; format: in vivo, Female Fischer 344 rats
Procedure: as §1

[2] = breast tumor-bearing rats (13762NF), 300 μCi, planar scintigraphy 15 to 45 min

CC(C)NCC(O)COc1ccc(CCC(=O)[N]2CC[NH][Tc]23(=[O])[NH]CC[N]3C(=O)CCc2ccc(OCC(O)CNC(C)C)cc2)cc1 (centres unmarked) [^99mTc-EDA-ESM, ^99mTc-Ethylenediamine-esmolol]
heart uptake (SPECT/CT) (normal rat): high heart uptake | heart uptake [1, 2]: high uptake | tumor visualization [1, 2]: could not be visualized well | cardiac region count/pixels ratio (line profile curve) ([1]; breast tumor-bearing rats, 300 μCi/rat, 15-45 minutes, compared to laterally located tissues): high cardiac region count/pixels ratio | Heart to muscle (H/M) count density uptake ratios ([1]; tumor-bearing rats (n=4), 300 μCi IV, sacrificed at 2 hrs, compared with heart/other tissue ratios): higher than other tissues
